Key:
[1] = target: KRAS G12C and cRAF (Ras-binding domain) interaction (Homo sapiens (Human), UniProt P01116, C118S/C51S/C80L/G12C); assay: Inhibition of KRAS G12C and cRAF binding (AlphaScreen); conditions: GMPPNP-loaded KRAS G12C, 19-20 hours incubation with compound; read-out: IC50 (Inhibition of KRAS G12C and cRAF Binding)
Outline: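 IC50 values come from 4-parameter nonlinear regression of AlphaScreen signal (680 nm excitation, 570 nm emission). Compound plates sat 19-20 h at room temperature before RBD and donor/acceptor beads were added in Hepes pH 7.4 buffer with 150 mM NaCl, 5 mM MgCl2, 2% DMSO for 60-90 min; biotin-AviTag-GST replaced RBD to flag assay-technology interferers.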

[2] = target: KRAS G12C and PI3Ka (Ras-binding domain) interaction (Homo sapiens (Human), UniProt P01116, C118S/C51S/C80L/G12C); assay: Inhibition of KRAS G12C and PI3Ka binding (AlphaScreen); conditions: GMPPNP-loaded KRAS G12C, 2 hours incubation with compound; read-out: PI3Ka RBD IC50
KRAS G12C and PI3Ka (Ras-binding domain) interaction, sequence (P01116 other isoform, or with tags, fused parts or gaps G12C/C51S/C80L/C118S): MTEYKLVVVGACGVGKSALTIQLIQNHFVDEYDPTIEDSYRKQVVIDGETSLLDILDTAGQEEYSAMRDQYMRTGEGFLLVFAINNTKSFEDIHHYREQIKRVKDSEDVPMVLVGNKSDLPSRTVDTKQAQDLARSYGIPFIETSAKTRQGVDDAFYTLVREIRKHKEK
Experimental: Compounds were diluted in 100% DMSO and each compound concentration was spotted at 200 nl/well onto low volume, white 384 well plates. […] The KRAS GT2C was diluted in 25 mM Hepes, pH 7.4, 150 mM NaCl, 5 mMv MgCl2, 0.0100 TritonX-100 and 10 μM GMPPNP and added at 10 ul/well to compound-spotted plates resulting in a […] concentration of 2%. Plates were incubated for 2 hours. A mixture of RBD and the AlphaScreen streptavidin donor and nickel chelate acceptor beads diluted in 25 mMv Hepes, pH 7.4, 150 mMv NaCl, 5 mM MgCl2, 0.0100 TritonX-100 and 2% DMSO was then added at 10 ul/well and incubated for 60-90 minutes before the samples were read for emission at 570 nm after excitation of the donor beads at 680 nm. All incubations were performed at room temperature. […] Final assay conditions were 1.5 nM KRAS GT2C, 100 nM RBD, 1.25 ug/ml of AlphaScreen donor beads and 10 μg/ml AlphaLISA acceptor beads. IC50S were determined using nonlinear regression fit of [inhibitor]vs. response (4 parameters). […]

KRAS G12C and cRAF (Ras-binding domain) interaction, sequence (P01116 other isoform, or with tags, fused parts or gaps G12C/C51S/C80L/C118S): as above

IC50 [1] [nM]	IC50 [2] [nM]	SMILES
10 to 100	10 to 100	CN(c1nc(OC[C@@]23CCCN2C[C@H](F)C3)nc2c1CCN(c1cccc3cccc(Cl)c13)C2)[C@@H]1CCN(C(=O)/C=C/c2nc([C@H]3C[C@@H]3F)no2)C1 [Example 130, (E)-1-((R)-3-((7-(8-chloronaphthalen-1-yl)-2-(((2R,7aS)-2-fluorohexahydro-1H-pyrrolizin-7a-yl)methoxy)-5,6,7,8-tetrahydropyrido[3,4-d]pyrimidin-4-yl)(methyl)amino)pyrrolidin-1-yl)-3-(3-((1R,2S)-2-fluorocyclopropyl)-1,2,4-oxadiazol-5-yl)prop-2-en-1-one]
< 10	10 to 100	CN1C[C@H](O)C[C@H]1C#CC(=O)N1CC[C@@H](N(C)c2nc(OC[C@@]34CCCN3C[C@H](F)C4)nc3c(F)c(-c4cccc5cccc(Cl)c45)ncc23)C1 [Example 247, 1-((R)-3-((7-(8-chloronaphthalen-1-yl)-8-fluoro-2-(((2R,7aS)-2-fluorohexahydro-1H-pyrrolizin-7a-yl)methoxy)pyrido[4,3-d]pyrimidin-4-yl)(methyl)amino)pyrrolidin-1-yl)-3-((2S,4R)-4-hydroxy-1-methylpyrrolidin-2-yl)prop-2-yn-1-one]
10 to 100	10 to 100	CN(CC1CN(C(=O)/C=C/c2nc(C3CC3)no2)C1)c1nc(OCC23CCCN2CCC3)nc2c1CCN(c1cccc3cccc(Cl)c13)C2 [Example 172, (E)-1-(3-(((7-(8-chloronaphthalen-1-yl)-2-((hexahydro-1H-pyrrolizin-7a-yl)methoxy)-5,6,7,8-tetrahydropyrido[3,4-d]pyrimidin-4-yl)(methyl)amino)methyl)azetidin-1-yl)-3-(3-cyclopropyl-1,2,4-oxadiazol-5-yl)prop-2-en-1-one]
10 to 100	10 to 100	CN(c1nc(OCC23CCCN2CCC3)nc2c1CCN(c1cccc3cccc(Cl)c13)C2)[C@@H]1CCN(C(=O)/C=C/c2nc(C3CC3)no2)C1 [Example 161, (R,E)-1-(3-((7-(8-chloronaphthalen-1-yl)-2-((hexahydro-1H-pyrrolizin-7a-yl)methoxy)-5,6,7,8-tetrahydropyrido[3,4-d]pyrimidin-4-yl)(methyl)amino)pyrrolidin-1-yl)-3-(3-cyclopropyl-1,2,4-oxadiazol-5-yl)prop-2-en-1-one]
10 to 100	10 to 100	C=CC(=O)N1CC[C@@H](N(C)c2nc(OC[C@@]34CCCN3C[C@H](F)C4)nc3c(F)c(-c4cccc5cccc(F)c45)ncc23)C1 [Example 258, 1-((R)-3-((8-fluoro-7-(8-fluoronaphthalen-1-yl)-2-(((2R,7aS)-2-fluorotetrahydro-1H-pyrrolizin-7a(5H)-yl)methoxy)pyrido[4,3-d]pyrimidin-4-yl)(methyl)amino)pyrrolidin-1-yl)prop-2-en-1-one]
